In brackets after ≈: the same amount, converted by molar mass. Read-outs that look alike come from different tables or passages of the source.
Tests used:
[1] = test system: M. tuberculosis H37Rv GyrA D94G; assay type: cell-based
[2] = test system: M. tuberculosis H37Rv GyrA A90V; assay type: cell-based
[3] = test system: M. tuberculosis H37Rv GyrB D500N; assay type: cell-based
[4] = test system: multidrug-resistant M. tuberculosis clinical strain GV1503014223; test: microbe, parasite or virus in culture; assay type: cell-based; details: Mycobacterium tuberculosis; MDR clinical strain; Table 3
[5] = test system: multidrug-resistant M. tuberculosis clinical strain KC1503006247; test: microbe, parasite or virus in culture; assay type: cell-based; details: Mycobacterium tuberculosis; MDR clinical strain; Table 3
[6] = test system: multidrug-resistant M. tuberculosis clinical strain XCC1503082245; test: microbe, parasite or virus in culture; assay type: cell-based; details: Mycobacterium tuberculosis; MDR clinical strain; Table 3
[7] = test system: M. tuberculosis H37Rv GyrA D94G; details: Table 2, published previously (Poissy et al. 2010); cited from earlier work
[8] = test system: M. tuberculosis H37Rv GyrA A90V; details: Table 2, published previously (Poissy et al. 2010); cited from earlier work
[9] = test system: quinolone-resistant M. tuberculosis strains (GyrB D500N, GyrA D94G and GyrA A90V strains); assay type: cell-based

Compound | MIC (M. tuberculosis) D94G [1] [µM] | MIC (M. tuberculosis) A90V [2] [µM] | MIC M. tuberculosis H37Rv GyrA D94G [1] [µM] | MIC M. tuberculosis H37Rv GyrA A90V [2] [µM] | MIC M. tuberculosis H37Rv GyrB D500N [3] [µM] | MIC [4] [µM] | MIC [5] [µM] | MIC [6] [µM] | MIC (M. tuberculosis) D94G [7] [µM] | MIC (M. tuberculosis) A90V [8] [µM] | antibacterial activity against quinolone-resistant M. tuberculosis strains (in words) [9]
O=C(O)c1cn(C2CC2)c2cc(N3CCNCC3)c(F)cc2c1=O [Ciprofloxacin, ciprofloxacin, reference compound] | ≥24 | ≥24 | – | – | – | – | – | – | – | – | –
CCCCCCCN1CCN(c2c(F)cc3c(=O)c(C(=O)O)cn(C4CC4)c3c2OC)CC1 [Compound 15, 1-cyclopropyl-6-fluoro-7-(4-heptylpiperazin-1-yl)-8-methoxy-4-oxo-1,4-dihydroquinoline-3-carboxylic acid] | – | – | 0.5 (≈ 0.23 µg/mL) | 2.2 (≈ 1.01 µg/mL) | 2.2 (≈ 1.01 µg/mL) | 1 (≈ 0.46 µg/mL) | 1 (≈ 0.46 µg/mL) | 1 (≈ 0.46 µg/mL) | – | – | –
CCCCCCCCCN1CCN(c2c(F)cc3c(=O)c(C(=O)O)cn(C4CC4)c3c2OC)CC1 [Compound 17, 1-cyclopropyl-6-fluoro-8-methoxy-7-(4-nonylpiperazin-1-yl)-4-oxo-1,4-dihydroquinoline-3-carboxylic acid] | – | – | 2 (≈ 0.975 µg/mL) | 2 (≈ 0.975 µg/mL) | 0.5 (≈ 0.244 µg/mL) | < 0.12 | < 0.12 | 1 (≈ 0.488 µg/mL) | – | – | –
CCCCCCCCCCCN1CCN(c2c(F)cc3c(=O)c(C(=O)O)cn(C4CC4)c3c2OC)CC1 [Compound 19, 1-cyclopropyl-6-fluoro-8-methoxy-4-oxo-7-(4-undecylpiperazin-1-yl)-1,4-dihydroquinoline-3-carboxylic acid] | – | – | 10 (≈ 5.16 µg/mL) | 10 (≈ 5.16 µg/mL) | 2 (≈ 1.03 µg/mL) | 0.5 (≈ 0.258 µg/mL) | 0.12 (≈ 0.0619 µg/mL) | 0.5 (≈ 0.258 µg/mL) | – | – | –
CCCCCCCCCCCCN1CCN(c2c(F)cc3c(=O)c(C(=O)O)cn(C4CC4)c3c2OC)CC1 [Compound 20, 1-cyclopropyl-7-(4-dodecylpiperazin-1-yl)-6-fluoro-8-methoxy-4-oxo-1,4-dihydroquinoline-3-carboxylic acid] | – | – | 1.9 (≈ 1.01 µg/mL) | 1.9 (≈ 1.01 µg/mL) | 0.23 (≈ 0.122 µg/mL) | 0.47 (≈ 0.249 µg/mL) | 0.47 (≈ 0.249 µg/mL) | 0.47 (≈ 0.249 µg/mL) | – | – | –
COc1c(N2CCNC(C)C2)c(F)cc2c(=O)c(C(=O)O)cn(C3CC3)c12 (stereo not drawn) [Gatifloxacin, gatifloxacin] | – | – | – | – | – | – | – | – | 2.66 (≈ 0.999 µg/mL) | 5.33 (≈ 2 µg/mL) | –
CCCCCCCCCCN1CCN(c2cc3c(cc2F)c(=O)c(C(=O)O)cn3C2CC2)CC1 [Quin 9, 1-cyclopropyl-7-(4-decylpiperazin-1-yl)-6-fluoro-4-oxo-1,4-dihydroquinoline-3-carboxylic acid] | ≥4.8 | ≥4.8 | – | – | – | – | – | – | – | – | –
CCCCCCCCN1CCN(c2cc3c(cc2F)c(=O)c(C(=O)O)cn3C2CC2)CC1 [Quin 16, 1-cyclopropyl-6-fluoro-7-(4-octylpiperazin-1-yl)-4-oxo-1,4-dihydroquinoline-3-carboxylic acid] | 13.5 (≈ 5.99 µg/mL) | 6.7 (≈ 2.97 µg/mL) | – | – | – | – | – | – | – | – | –
CCCCCN1CCN(c2c(F)cc3c(=O)c(C(=O)O)cn(C4CC4)c3c2OC)CC1 [Quin 17, 1-cyclopropyl-6-fluoro-8-methoxy-4-oxo-7-(4-pentylpiperazin-1-yl)-1,4-dihydroquinoline-3-carboxylic acid] | >18.5 | 18.5 (≈ 7.98 µg/mL) | – | – | – | – | – | – | – | – | –
CCCCCCCCN1CCN(c2c(F)cc3c(=O)c(C(=O)O)cn(C4CC4)c3c2OC)CC1 [Quin 18, 1-cyclopropyl-6-fluoro-8-methoxy-7-(4-octylpiperazin-1-yl)-4-oxo-1,4-dihydroquinoline-3-carboxylic acid] | 2 (≈ 0.947 µg/mL) | 0.5 (≈ 0.237 µg/mL) | 2 (≈ 0.947 µg/mL) | 2 (≈ 0.947 µg/mL) | <0.12 | < 0.12 | < 0.12 | 0.12 (≈ 0.0568 µg/mL) | – | – | high antibacterial activity
CCCCCCCCCCN1CCN(c2c(F)cc3c(=O)c(C(=O)O)cn(C4CC4)c3c2OC)CC1 [Quin 19, 1-cyclopropyl-7-(4-decylpiperazin-1-yl)-6-fluoro-8-methoxy-4-oxo-1,4-dihydroquinoline-3-carboxylic acid] | 1 (≈ 0.502 µg/mL) | 0.5 (≈ 0.251 µg/mL) | 2 (≈ 1 µg/mL) | 1 (≈ 0.502 µg/mL) | 0.5 (≈ 0.251 µg/mL) | < 0.12 | < 0.12 | 0.5 (≈ 0.251 µg/mL) | – | – | high antibacterial activity
CCCCCCCCCCCCCCCCN1CCN(c2c(F)cc3c(=O)c(C(=O)O)cn(C4CC4)c3c2OC)CC1 [Quin 20, 1-cyclopropyl-6-fluoro-7-(4-hexadecylpiperazin-1-yl)-8-methoxy-4-oxo-1,4-dihydroquinoline-3-carboxylic acid] | >13.7 | 13.7 (≈ 8.03 µg/mL) | – | – | – | – | – | – | – | – | –

— US10087165B2, “Fluoroquinolones and use thereof to treat bacterial infections” (UNIVERSITÉ PIERRE ET MARIE CURIE—PARIS 6 (UPMC), priority 2014, dated 2018)
